Several values for one entry are separate records, joined by “and”; a condition that tells them apart may be missing. Equal values may be shown once. Some results are limits rather than exact numbers.

Series [1] relates to Trypanosoma cruzi. As to the kind of experiment: microbe, parasite or virus in culture. The format is functional, Tulahuen LacZ, Clone C4.
The nature of series [2]: DNDI: Cytotoxicity against L-6 rat myoblasts from skeletal muscle cells. To be noted: L6 rat skeletal muscle myoblast cells.
For series [3], the system named is Trypanosoma cruzi. As to the kind of experiment: microbe, parasite or virus in culture. Format: functional, organism-based, Tulahuen LacZ, Clone C4.
The mark [4] stands for this setting: Trypanosoma cruzi, Tulahuen LacZ, Clone C4.

By IC90 is commonly meant the concentration needed for an effect of 90%. Read a high IC90 as a need for much substance. The term IC50 denotes the concentration needed to halve the response being measured. A low value points to greater potency in that assay. In the series with Trypanosoma cruzi [1] (setting [4]), `Cn1cc(C(=O)NC2CCN(C(c3ccc(C#N)cc3)c3cccnc3)CC2)c(C(F)(F)F)n1` (configuration not stated) came in with an IC90 of 0.0775 µM. In addition, the IC50 in series [2] (IC50) is over 100 µM; with Trypanosoma cruzi [3] (setting [4]), 0.0285 µM.
Taken in the same sequence, the figures for `CC(C)CC(Nc1cccnc1)c1ccc(Cl)cc1` (configuration not stated) were over 1 µM, 56.2 µM and 0.64 µM.
In the series on Trypanosoma cruzi [1] (setting [4]), `Fc1ccc(N2CCC(NC(c3cccnc3)c3ccc(Cl)cc3F)CC2)cc1` (configuration not stated) came in with an IC90 of 0.053 µM. Also, the results for the IC50 (in series [2] (IC50); with Trypanosoma cruzi [3] (setting [4])) were 55.4 µM and 0.019 µM, respectively.
Taken in the same sequence, the figures for `FC(F)(F)Cn1cc(C(NC2CCN(c3ccc(C(F)(F)F)cc3)CC2)c2cccnc2)cn1` (configuration not stated) were 0.088 µM, 71.2 µM and 0.046 µM.
As for `O=C(Nc1ccc(Cl)cc1)N1CCC(NC(c2ccc(Cl)cc2)c2cccnc2)CC1` (configuration not stated), it took 0.086 µM to reach the 90% level with Trypanosoma cruzi [1] (setting [4]) (IC90). For the same molecule, the IC50 in series [2] (IC50) is 43.4 µM; in the series with Trypanosoma cruzi [3] (setting [4]), 0.025 µM.
For `O=C(Nc1ccccc1)NC1CCN(C(c2ccc(C(F)(F)F)cc2)c2cccnc2)CC1` (configuration not stated), in the series on Trypanosoma cruzi [1] (setting [4]), the 90% effect level (IC90) was put at 0.036 µM. Also, the figures for the IC50 (in series [2] (IC50); with Trypanosoma cruzi [3] (setting [4])) were 31.7 µM and 0.014 µM, respectively.
Consider `O=C(NC(c1ccc(Cl)cc1)c1cccnc1)c1ccc(Cl)cc1` (configuration not stated), for which, in the series on Trypanosoma cruzi [1] (setting [4]), the IC90 was 0.9 µM. Besides, the IC50 in series [2] (IC50) turned out to be 58 µM; with Trypanosoma cruzi [3] (setting [4]), 0.45 µM.
In the series with Trypanosoma cruzi [1] (setting [4]), `NC(=O)c1cccc(N2CCC(NC(c3cccnc3)c3ccc(Cl)cc3F)CC2)c1` (configuration not stated) registered an IC90 of over 0.1 µM. The IC50 was over 100 µM in series [2] (IC50) and 0.0715 µM in the series on Trypanosoma cruzi [3] (setting [4]).
Taken in the same sequence, the figures for `O=C(NC1CCN(C(c2cncnc2)c2ccc(Cl)cc2F)CC1)c1cccc(F)c1F` (configuration not stated) were 0.241 µM, 75.8 µM and 0.0295 µM.
In the same order, the values of `CCn1cc(C(NC2CCN(c3ccc(C(F)(F)F)cc3)CC2)c2cccnc2)cn1` (configuration not stated) are 0.092 µM, over 100 µM and 0.0535 µM.
`OC(c1ccc(C(F)(F)F)cc1)(c1cncc(Cl)c1)c1ccc(Cl)cc1F` (configuration not stated) returned a 90% effect concentration (IC90) with Trypanosoma cruzi [1] (setting [4]) of over 1 µM. The IC50 is 78.7 µM in series [2] (IC50) and over 1 µM in the series on Trypanosoma cruzi [3] (setting [4]).
`CC(C)CC(=O)N1CCC(NC(c2cnccn2)c2ccc(F)cc2F)CC1` (configuration not stated) gave an IC90 in the series with Trypanosoma cruzi [1] (setting [4]) of over 1 µM. The IC50 is over 100 µM in series [2] (IC50) and 0.55 µM in the series with Trypanosoma cruzi [3] (setting [4]).
In the same order, the values of `OC(c1ccc(C(F)(F)F)cc1)(c1ccc(C(F)(F)F)cc1)c1cc2ccccc2[nH]1` are 7.59 µM, 11.6 µM and 3.98 µM.
Taken in the same sequence, the figures for `CC(C)c1ccc(S(=O)(=O)N2CCC(NC(c3cnccn3)c3ccc(F)cc3F)CC2)cc1` (configuration not stated) were 0.55 µM, 21.9 µM and 0.21 µM.
In the case of `Cc1noc(C)c1C(=O)N1CCC(NC(c2ccc(C(F)(F)F)cc2)c2cccnc2)CC1` (configuration not stated), the IC90 with Trypanosoma cruzi [1] is 0.046 µM and 0.096 µM. Also, the IC50 in series [2] (IC50) is over 100 µM; with Trypanosoma cruzi [3] it was 0.0365 µM; in the series with Trypanosoma cruzi [3] (setting [4]), 0.02 µM.
Molecule `CCN(CC)C(=O)N1CCC(NC(c2ccc(C(F)(F)F)cc2)c2cccnc2)CC1` (configuration not stated) came in with a concentration for an effect of 90% (IC90) in the series on Trypanosoma cruzi [1] (setting [4]) of 0.25 µM. Also, the IC50 in series [2] (IC50) was 90.8 µM; in the series with Trypanosoma cruzi [3] (setting [4]), 0.036 µM.
In the same order, the values of `OC(c1ccc(Cl)cc1)(c1ncccn1)c1ccccc1Cl` (configuration not stated) are 66 µM, over 100 µM and 22.9 µM.
In the series on Trypanosoma cruzi [1] (setting [4]), `O=C(c1ccc(C(F)(F)F)cc1)N1CCN(C(c2ccc(Cl)cc2)c2cncnc2)CC1` (configuration not stated) showed an IC90 of 0.32 µM. For the same molecule, the values for the half-inhibitory concentration (IC50) (in series [2] (IC50); in the series with Trypanosoma cruzi [3] (setting [4])) were 54.1 µM and 0.15 µM, respectively.
In the same order, the values of `CC(C)CC(=O)NC(c1ccc(C(F)(F)F)cc1)c1cnccn1` (configuration not stated) are over 10 µM, over 100 µM and 8.91 µM.
As for `CC(C)Oc1ccc(C(c2cccnc2)N2CCN(C(=O)C(C)C)CC2)cc1` (configuration not stated), the IC90 with Trypanosoma cruzi [1] (setting [4]) came out at 0.2 µM. The IC50 was over 100 µM in series [2] (IC50) and 0.035 µM with Trypanosoma cruzi [3] (setting [4]).
Turning to `O=C(c1ccc(C(F)(F)F)cc1)N1CCC(NC(c2ccc(C(F)(F)F)cc2)c2cnccn2)CC1` (configuration not stated), in the series with Trypanosoma cruzi [1] (setting [4]), the IC90 is 0.27 µM. Moreover, the values for the IC50 (in series [2] (IC50); with Trypanosoma cruzi [3] (setting [4])) were 39.9 µM and 0.082 µM, respectively.
In the series on Trypanosoma cruzi [1] (setting [4]), `CC(C)(C)NC(=O)N1CCC(NC(c2cccnc2)c2ccc(Cl)cc2F)CC1` (configuration not stated) came in with an IC90 of 0.427 µM. Moreover, the IC50 in series [2] (IC50) was over 100 µM; with Trypanosoma cruzi [3] (setting [4]), 0.0795 µM.
Taken in the same sequence, the figures for `CC(c1ccc(C(F)(F)F)cc1)N1CCC(NC(c2cccnc2)c2ccc(Cl)cc2F)CC1` (configuration not stated) were over 0.1 µM, 19.5 µM and 0.075 µM.
Consider `NC(=O)c1cccc(C(O)(c2ccc(Cl)cc2)c2cccnc2)c1` (configuration not stated), for which, in the series with Trypanosoma cruzi [1], the IC90 was 0.1 µM and 0.32 µM. Moreover, the IC50 in series [2] (IC50) was over 100 µM; in the series on Trypanosoma cruzi [3], 0.03 µM and 0.078 µM.
`CC(C)(C)OC(=O)N1CCC(NC(c2ccc(C(F)(F)F)cc2)c2cnccn2)CC1` (configuration not stated) gave an IC90 in the series on Trypanosoma cruzi [1] (setting [4]) of 0.14 µM. The results for the half-maximal inhibitory concentration (IC50) (in series [2] (IC50); in the series with Trypanosoma cruzi [3] (setting [4])) were 62.8 µM and 0.058 µM, respectively.
In the series on Trypanosoma cruzi [1] (setting [4]), `O=C(Oc1ccccc1)N1CCC(NC(c2ccc(Cl)cc2)c2cccnc2)CC1` (configuration not stated) showed a concentration for an effect of 90% (IC90) of 0.044 µM. The IC50 turned out to be 60.8 µM in series [2] and 0.02 µM in the series on Trypanosoma cruzi [3] (setting [4]).
With `N#Cc1ccnc(N2CCC(NC(c3ccc(Cl)cc3)c3cccnc3)CC2)n1` (configuration not stated), in the series on Trypanosoma cruzi [1] (setting [4]), it took 0.086 µM to reach the 90% level (IC90). The IC50 in series [2] (IC50) came out at 57.1 µM; in the series on Trypanosoma cruzi [3] (setting [4]), 0.06 µM.

These data come from ChEMBL document CHEMBL1862790, “Optimisation of fenarimol series for the treatment of Chagas disease”.
